The source of these data is paper PMC7927021 (Toxins, 2021).

Where “and” joins values, the source holds several entries; their conditions need not be identical. Identical values can stand only once.

The test system of data set [1] is Caco-2 cells. In kind it is cell-based, human.
For data set [2], the system named is Caco-2 cells. The format is cell-based, human. This is another data set of the same source.
Details of data set [3]: method as in PMID 21699062. Particulars: established by JECFA in 2011; cited from earlier work.

For orientation: IC50 means the midpoint of a concentration-inhibition curve. Low values mean greater potency in that assay, high ones weaker potency in that assay. Regarding `CC(=O)O[C@@H]1C[C@]2(C)[C@@]3(CO)[C@H](O)C(=O)C(C)=C[C@H]3O[C@H]1[C@@]21CO1` [3-ADON, trichothec-9-en-8-one, 3-(acetyloxy)-12,13-epoxy-7,15-dihydroxy-, (3α,7α)], in the data set with Caco-2 cells [1], the “Number of KEGG pathways in which DEGs were enriched” value (“Number of KEGG pathways” below) is reported as 42 and the “Number of differentially expressed genes (DEGs)” value (shortened to “Number of differentially”) is 3132. In the data set on Caco-2 cells [2], the “Concentration range in which viability was significantly/sharply reduced” value lay within 1 to 10 µM; the “Concentration range of robust decrease in cell viability” value (“Concentration range of robust decrease” below) lay in the range of 2 to 10 µM; the half-inhibitory concentration (IC50) was 13.2 µM and 10.8 µM and 7.84 µM.
As to `CC(=O)OC[C@]12[C@H](O)C(=O)C(C)=C[C@H]1O[C@@H]1[C@H](O)C[C@@]2(C)[C@]12CO2` [15-ADON, trichothec-9-en-8-one, 15-(acetyloxy)-12,13-epoxy-3,7-dihydroxy-, (3α,7α)], in the data set with Caco-2 cells [1], the “Number of KEGG pathways” value amounted to 28 and the “Number of differentially” value was found to be 2425. For the same compound, in the data set on Caco-2 cells [2], the “Concentration range in which viability was significantly/sharply reduced” value lay within 0.2 to 10 µM and the “Concentration range of robust decrease” value is 0.5 to 10 µM.
On to `CC1=C[C@H]2O[C@@H]3[C@H](O)C[C@](C)([C@@]2(CO)[C@H](O)C1=O)[C@]31CO1` [DON, Deoxynivalenol], for which, in the data set with Caco-2 cells [1], the “Number of KEGG pathways” value is given as 27 and the “Number of differentially” value was determined as 2656. Further, in the data set on Caco-2 cells [2], the “Concentration range in which viability was significantly/sharply reduced” value was in the range of 0.2 to 10 µM and the “Concentration range of robust decrease” value was in the range of 0.2 to 10 µM. In addition, the “PMTDI (Provisional Maximum Tolerable Daily Intake)” value in data set [3] is given as 1 μg/kg bw per day.
